Measurements reported in patent US20230329284A1, “BEE ANTIVIRAL COMPOSITIONS” (priority 2022, published 2023).

What was measured:
[1] = system: deformed wing virus; experiment: Screen of plant compounds for effect on bee viral loads in live bees; assay type: in vivo, honey bee; settings: for antiviral activity in live bee trials: live bees exposed to natural products derived from plants; for deformed wing virus levels (viral loads), dose response: FIG. 6
Description: A total of 140 compounds were screened for their effect on bee viral loads.
All compounds are selected from food-safe (GRAS, generally recognized as safe by the US FDA) libraries and were tested in live bees to assess adverse impacts to bee health. Trials were carried out using live bees exposed to natural products derived from plants. […] Thymol and octanoic acid blends are being tested to assess possible synergies prior to field trials.

[2] = system: Deformed wing virus (DWV); experiment: Fluorescent determination of bee viral titers with nano-luciferase-expressing DWV construct; assay type: in vivo, bees; settings: for Average Fluorescence, Average Counts: single treatment with 10^5 copies DWV, average of nine bees, DWV alone 111.366, PBS 1.687; for viral load of DWV-infected bees compared with DWV control: low, medium, or high doses
Description: A fluorescent assay was performed to determine the effects of different treatments on bee viral load.
Bees were treated once with different doses of methyl jasmonate while simultaneously receiving an effective does (10^5 copies) of Deformed wing virus (DWV). The methyl jasmonte was at low dose (MJL), medium dose (MJM), or high dose (MJH). Additional bees were treated with thymol solution in low dose (TL), medium dose (TM), and high dose (TH). The infective virus dose comprised a viral construct that expressed nano-luciferase, allowing direct quantification of viral loads via spectrophotometer. As a negative control, phosphate buffered saline (PBS) solution was used alone. As a positive control, bees were infected with 10^5 DWV alone. Measurements were repeated nine times in nine different bees, and an average calculated.

[3] = system: VDV; experiment: Methyl jasmonate feeding of naturally VDV-infected adult honey bees, VDV load per bee by qPCR (ΔCq); assay type: in vivo; settings: for decrease in VDV titers compared to control bees (sugar alone) / mean change in quantification cycle value of VDV per bee (ΔCq) / decrease in VDV titers compared to control bees / mean ΔCq of VDV per bee: FIG. 1; for decrease in VDV titers compared to control bees (sugar alone) / mean change in quantification cycle value of VDV per bee (ΔCq): day 7; for mean change in quantification cycle value of VDV per bee (ΔCq): control 3.9 (+/-3.5); for decrease in VDV titers compared to control bees / mean ΔCq of VDV per bee: day 12; for mean ΔCq of VDV per bee: control 7.8 ( +/- 2.8)
Description: The effect on viral load of methyl jasmonate (MeJA) treatment on virally-infected bees was tested after 7 days and after 12 days of feeding sugar or sugar + MeJA.
Adult honey bees were reared in cages and fed either sucrose solution, 100 ppm MeJA dissolved in sucrose solution, or 500 ppm of MeJA dissolved in sucrose solution. Bees’ genetic material was individually examined by qPCR for normalized VDV loads at 7 days and 12 days after the start of MeJA treatment. Standard box plots include a dotted line that represents the mean, and each point represents an individual bee from one of various cages per treatment. VDV was not administered artificially and is from a natural infection. Levels of DWV-A, a recombinant variant of VDV, were too low in the specimen for quantification. A higher Δ Cq indicates […] VDV present in the specimen. For Day 7,
A second efficiency test was performed where VDV-infected adult bees were fed 100 ppm of MeJA dissolved in sucrose solution. As a control, only sucrose solution was administered.

Cc1ccc(C(C)C)c(O)c1 [thymol, 2-isopropyl-5-methylphenol]
high-intensity infections (viral levels above threshold) ([1]; FIG. 5, across 3000 honey bee trials): quantitative reduction of high-intensity infections
antiviral activity in live bee trials [1]: antiviral activity
Average Fluorescence, Average Counts ([2]; high dose): 63.290
Average Fluorescence, Average Counts ([2]; low dose): 67.092
viral load of DWV-infected bees compared with DWV control [2]: lower viral load
Average Fluorescence, Average Counts ([2]; medium dose): 72.992

CCCCCCCC(=O)O [octanoic acid]
deformed wing virus levels (viral loads), dose response ([1]; higher levels, 10 mM and 100 mM): dose response in viral loads
antiviral activity in live bee trials [1]: antiviral activity

COc1cc(/C=C/C(=O)O)ccc1O [ferulic acid, Ferulic acid]
deformed wing virus levels (viral loads), dose response ([1]; low levels, 0.1 mM): dose response in viral loads
antiviral activity in live bee trials [1]: antiviral activity

CC/C=C\CC1C(=O)CCC1CC(=O)OC (stereo not shown) [MeJA, Methyl jasmonate]
decrease in VDV titers compared to control bees (sugar alone) ([3]; sugar + 100 ppm MeJA): 11.5%
mean change in quantification cycle value of VDV per bee (ΔCq) ([3]; sugar + 100 ppm MeJA, higher ΔCq = more VDV): 3.45 (+/- 4.8)
decrease in VDV titers compared to control bees (sugar alone) ([3]; sugar + 500 ppm MeJA): 97.8%
mean change in quantification cycle value of VDV per bee (ΔCq) ([3]; sugar + 500 ppm MeJA): 0.085 (+/- 6.16)
decrease in VDV titers compared to control bees ([3]; sugar + 100 ppm MeJA): 33.3%
mean ΔCq of VDV per bee ([3]; sugar + 100 ppm MeJA): 5.2 ( +/- 4.9)
decrease in VDV titers compared to control bees ([3]; sugar + 500 ppm MeJA): 52.6%
mean ΔCq of VDV per bee ([3]; sugar + 500 ppm MeJA): 3.7 ( +/- 5.3)
decrease in VDV titers compared to bees fed sugar alone (using the mean) ([3]; FIG. 3, Day 7, sugar + 500 ppm MeJA): 7.1%
median Cq ([3]; FIG. 3, Day 7, sugar + 500 ppm MeJA, control 7.1): 6.1
mean Cq ([3]; FIG. 3, Day 7, sugar + 500 ppm MeJA, spread 2.1, control 7.0): 6.5
decrease in VDV titers compared to bees fed sugar alone (using the mean) ([3]; second efficiency test, FIG. 2, Day 7, sugar + 100 ppm MeJA): 21.9%
median ΔCq ([3]; second efficiency test, FIG. 2, Day 7, sugar + 100 ppm MeJA, control 4.17): 1.33
mean ΔCq ([3]; second efficiency test, FIG. 2, Day 7, sugar + 100 ppm MeJA, std dev. 3.8, control 3.2): 2.5
viral levels compared with bees fed sugar alone ([3]; treated for 12 days with sugar + MeJA): significantly lower viral levels
deformed wing virus levels (viral loads), dose response ([1]; higher levels, 1 mM or 10 mM): dose response in viral loads
antiviral activity in live bee trials [1]: antiviral activity
Average Fluorescence, Average Counts ([2]; high dose): 68.246
Average Fluorescence, Average Counts ([2]; low dose): 76.120
viral load of DWV-infected bees compared with DWV control [2]: lower viral load
Average Fluorescence, Average Counts ([2]; medium dose): 83.905
